A word on the Ki: it is a dissociation constant, usually derived from enzyme kinetics or from competition with a known ligand.

Our source for the Ki and KI values is publication PMC8617976, “Inhibitory Potential of New Phenolic Hydrazide-Hydrazones with a Decoy Substrate Fragment towards Laccase from a Phytopathogenic Fungus: SAR and Molecular Docking Studies” (International Journal of Molecular Sciences, 2021).

For test [1], the target named is T1, laccase from Trametes versicolor.
T1 construct: gene LCC2; PDB 1GYC (laccase 2) used for docking only
Nature of the test: syringaldazine oxidation at […] nm, Lineweaver-Burk. The class given is biochemical. Particulars: McIlvaine buffer pH 5.3, 25 °C, 30 min preincubation, methanol co-solvent.

For test [2] the target is unchanged. The experiment in a line: syringaldazine oxidation at […] nm, Lineweaver-Burk. In kind it is biochemical. Particulars: McIlvaine buffer pH 5.3, 25 °C, 30 min preincubation, methanol co-solvent, printed as not active up to 1000 µM, type not determined.
The mark [3] stands for this setting: mixed type, non-competitive component.

`CC(C)(C)c1cccc(/C=N/NC(=O)c2cccc(O)c2)c1O` [4k, 3-Hydroxy-N’-[(E)-(3-tert-butyl-2-hydroxyphenyl)methylidene]benzohydrazide]: the Ki in test [1] (competitive) amounted to 35.8 µM.
`Cc1cc(/C=N/NC(=O)c2ccccc2O)c(O)c(C(C)(C)C)c1` [4e, 2-Hydroxy-N’-[(E)-(3-tert-butyl-2-hydroxy-5-methylphenyl)methylidene]benzohydrazide] had a Ki in test [1] (uncompetitive) of 150 µM.
Regarding `COc1cccc(C(=O)N/N=C/c2cc(C)cc(C(C)(C)C)c2O)c1` [4c, 3-Methoxy-N’-[(E)-(3-tert-butyl-2-hydroxy-5-methylphenyl)methylidene]benzohydrazide], in test [1] (non-competitive), the Ki stood at 17.4 µM.
In test [1] (setting [3]), `O=C(N/N=C/c1cccc(-c2ccccc2)c1O)c1ccc2ccccc2c1O` [5b, N’-[(E)-(2-hydroxy-3-phenylphenyl)methylidene]-2-(1-hydroxynaphtho)hydrazide] returned a Ki of 24.3 µM.
In turn, `CC(C)(C)c1cccc(/C=N/NC(=O)c2cc(O)cc(O)c2)c1O` [4l, 3,5-Dihydroxy-N’-[(E)-(3-tert-butyl-2-hydroxyphenyl)methylidene]benzohydrazide] yielded an inhibition constant Ki in test [1] (competitive) of 38 µM.
In test [1] (mixed type, competitive component), `O=C(N/N=C/c1cccc(-c2ccccc2)c1O)c1ccccc1O` [4m, 2-Hydroxy-N’-[(E)-(2-hydroxy-3-phenyl-phenyl)methylidene]benzohydrazide] registered a Ki of 26.4 µM.
In test [1] (competitive), `CC(C)(C)c1cc(/C=N/NC(=O)c2cc(O)cc(O)c2)c(O)c(C(C)(C)C)c1` [4i, 3,5-Dihydroxy-N’-[(E)-(3,5-di-tert-butyl-2-hydroxyphenyl)methylidene]benzohydrazide] gave a Ki of 55.6 µM.
With `CC(C)(C)c1cc(/C=N/NC(=O)c2cccc(O)c2)c(O)c(C(C)(C)C)c1` [4h, 3-Hydroxy-N’-[(E)-(3,5-di-tert-butyl-2-hydroxyphenyl)methylidene]benzohydrazide], the Ki in test [1] (competitive) turned out to be 18.9 µM.
In test [1] (setting [3]), `O=C(N/N=C/c1cccc(-c2ccccc2)c1O)c1cccc(O)c1` [4n, 3-Hydroxy-N’-[(E)-(2-hydroxy-3-phenyl-phenyl)methylidene]benzohydrazide] returned a Ki of 139 µM.
In turn, `CC(C)(C)c1cccc(/C=N/NC(=O)c2ccc3ccccc3c2O)c1O` [5d, N’-[(E)-(3-tert-butyl-2-hydroxy-phenyl)methylidene]-2-(1-hydroxynaphtho)hydrazide] returned a Ki in test [1] (setting [3]) of 55.6 µM.
As for `Cc1cc(/C=N/NC(=O)c2ccc3ccccc3c2O)c(O)c(C(C)(C)C)c1` [5a, N’-[(E)-(3-tert-butyl-2-hydroxy-5-methylphenyl)methylidene]-2-(1-hydroxynaphtho)hydrazide], in test [1] (setting [3]), the Ki was determined as 8 µM.
In test [1] (non-competitive), `CC(C)(C)c1cc(/C=N/NC(=O)c2ccccc2O)c(O)c(C(C)(C)C)c1` [4g, 2-Hydroxy-N’-[(E)-(3,5-di-tert-butyl-2-hydroxyphenyl)methylidene]benzohydrazide] returned a Ki of 52.6 µM. In other words, the double-digit micromolar range.
As for `Cc1cc(/C=N/NC(=O)c2cc(O)cc(O)c2)c(O)c(C(C)(C)C)c1` [4f, 3,5-Dihydroxy-N’-[(E)-(3-tert-butyl-2-hydroxy-5-methylphenyl)methylidene]benzohydrazide], the Ki in test [1] (competitive) turned out to be 32.3 µM.
For `Cc1cc(/C=N/NC(=O)c2ccccc2)c(O)c(C(C)(C)C)c1` [4b, N’-[(E)-(3-tert-butyl-2-hydroxy-5-methylphenyl)methylidene]benzohydrazide], in test [1] (competitive), affinity was put at a Ki of 82 µM. This Ki is about 2.5-fold higher than that of the compound before.
In turn, `Cc1cc(/C=N/NC(=O)Cc2ccc(O)cc2)c(O)c(C(C)(C)C)c1` [3b, 2-(4-Hydroxyphenyl)-N’-[(E)-(3-tert-butyl-2-hydroxy-5-methylphenyl)methylidene]acetohydrazide] gave an inhibition constant Ki in test [1] (uncompetitive, text b18 prints 49.1) of 49.2 µM.
In test [1] (competitive), `COc1ccc(C(=O)N/N=C/c2cc(C)cc(C(C)(C)C)c2O)cc1` [4d, 4-Methoxy-N’-[(E)-(3-tert-butyl-2-hydroxy-5-methylphenyl)methylidene]benzohydrazide] showed an inhibition constant (Ki) of 25.8 µM.
For `CC(C)(C)c1cc(/C=N/NC(=O)c2ccc3ccccc3c2O)c(O)c(C(C)(C)C)c1` [5c, N’-[(E)-(3,5-di-tert-butyl-2-hydroxy-phenyl)methylidene]-2-(1-hydroxynaphtho)hydrazide monomethanolate], the Ki in test [1] (non-competitive) came to 16.2 µM.
In test [1] (uncompetitive), `CC(C)(C)c1cccc(/C=N/NC(=O)c2ccccc2O)c1O` [4j, 2-Hydroxy-N’-[(E)-(3-tert-butyl-2-hydroxyphenyl)methylidene]benzohydrazide] returned a Ki of 65.6 µM.
`O=C(N/N=C/c1cccc(-c2ccccc2)c1O)c1cc(O)cc(O)c1` [4o, 3,5-Dihydroxy-N’-[(E)-(2-hydroxy-3-phenyl-phenyl)methylidene]benzohydrazide] returned a Ki in test [1] (non-competitive) of 69.9 µM.
Consider `CC(=O)NN=Cc1cc(C)cc(C(C)(C)C)c1O` (mixture of isomers) [3a, (E/Z)-N’-(3-tert-butyl-2-hydroxy-5-methyl-benzylidene)acetohydrazide], for which the KI in test [2] was > 1000 µM.
